The values that follow come from article PMC9184620, “TAS1553, a small molecule subunit interaction inhibitor of ribonucleotide reductase, exhibits antitumor activity by causing DNA replication stress” (Communications Biology, 2022).

The subject of data set [1] is human solid and hematological cancer cell lines. Description: Cell proliferation assay (CellTiter-Glo), cell line panel. The note with it: 72 h, range over solid and hematological cancer cell lines, 3 days exposure. The class given is cell-based. Here is the method: The growth inhibitory effect of TAS1553 was determined by calculating the GI50 value against human solid and hematological cancer cell lines.
Cell proliferation assay was performed as reported previously. Briefly, cells were plated and incubated for 1 day, followed by 3 days of exposure to the compound. After compound exposure, viable cells were detected by using the CellTiter-Glo luminescent cell viability assay (Promega). GI50 values were calculated using the SAS software package. The experiment was performed in triplicates.

Data set [2] deals with intracellular dNTP pools in HCC38 and MV-4-11 cells. Description: Measurement of intracellular dNTP/ATP pools by LC-MS/MS. The class given is cell-based, human. Here is the method:
Next, we examined the RNR inhibitory effect of TAS1553 in cells by measuring dNDP pools which are direct products of RNR. However, all dNDP pools could not be detected using LC-MS/MS due to detection limit. Then we determined whether TAS1553 affected the intracellular dNTP pools as surrogate marker for RNR inhibition in cells. LC-MS/MS could not measure dGTP pool due to masking dGTP peak by ATP, as previously reported; thus, dATP, dCTP and dTTP pools were analyzed. HCC38 and MV-4-11, an acute myelogenous leukemia (AML) cell line, were exposed to TAS1553, and the peak area of each dNTP was determined using cell extracts.
Next, we evaluated both concentration-dependent and time-dependent effects of TAS1553 on the dATP pool in HCC38 and MV-4-11 cell lines using absolute quantification. After 2 h of TAS1553 exposure, there was a concentration-dependent reduction of intracellular dATP pool in both cell lines (Fig. 2c). Furthermore, the intracellular dATP pool was reduced within 30 minutes when treated with TAS1553 at 1 or 10 µmol/L in both cell lines (Fig. 2d), consistent with its inhibitory effect on the protein-protein interaction (Fig. 2a).
Cells were plated, cultured for 1 day, treated with the compound, and harvested. The collected cells were homogenized with 0.42 mol/L perchloric acid, including IS-dATP at 0.6 μmol/L and IS-ATP at 2.4 μmol/L as internal standards for dATP and ATP, respectively. At each time point, xenograft tumors were excised after single dosing of the test compound. The tissues were homogenized with 0.42 mol/L perchloric acid, including IS-dATP at 3 μmol/L as an internal standard for dATP and ATP. Subsequently, a dichloromethane solution containing 0.5 N tri-n-octylamine was added to the perchloric acid-soluble fraction obtained by centrifugation. The aqueous layer collected after vortex and centrifugation was analyzed by LC-MS/MS. LC-MS/MS analysis was performed with a prominence HPLC system connected to a LCMS-8040 tandem mass spectrometer with ESI probe (SHIMADZU CORPORATION). […]

For data set [3], the system named is MV-4-11 xenograft. The data set can be described thus: Antitumor activity in rats bearing MV-4-11 xenografts. The data set is classed as in vivo. On the procedure: (§1) Next, we evaluated the antitumor activity of a high-dose administration of TAS1553 and cytarabine in rats bearing MV-4-11 xenografts. […] The rats were treated with cytarabine for 5 days at 16 and 32 mg/kg. […] In addition to the hematologic tumor, we evaluated the antitumor activity of TAS1553 in mice implanted with HCC38 cell line as a solid tumor model. […] Finally, TAS1553 was evaluated for its survival benefit in a mouse model. To achieve this, we established mice bone marrow cells harboring the human MLL-AF9 fusion gene, which is known as a driver gene for AML in humans as well as mice[48].
For the subcutaneous implantation model of MV-4-11, F344/NJcl-rnu/rnu rats were irradiated with X-ray (4 Gy) to improve the efficiency of xenograft implantation. Two days after X-ray irradiation, MV-4-11 cells suspended in PBS with 50 vol% Matrigel were inoculated into the rats (2 × 10^7 cells/animal). In the mice subcutaneous implantation model, HCC38 cells suspended same as above were inoculated into male BALB/cAJcl-nu/nu mice (1 × 10^7 cells /body). […] Antitumor activity and body weight change were evaluated as previously reported. Dunnett test using the SAS software package in EXSUS (CAC Croit) was used to compare the tumor volume (P < 0.05).

The test system of data set [4] is MLL-AF9 AML cells. Description: Survival in systemic AML model (mice bone marrow cells harboring human MLL-AF9 fusion gene). The data set is classed as in vivo, mouse. The note with it: 100 mg/kg daily. On the procedure: as §1, with “mice[48]. Mice were transplanted with the cells through the tail vein and the treatment with TAS1553 was started 11 days post-implantation.” for “mice[48].”

[5] abbreviates: 400 mg/kg oral once daily for 14 days.

In data set [1], `Cc1ccc(F)c([C@@H](C)[C@H](NS(=O)(=O)c2ccc(Cl)cc2C(N)=O)c2n[nH]c(=O)o2)c1C` [TAS1553, 5-chloro-2-{N-[(1S,2R)-2-(6-fluoro-2,3-dimethylphenyl)-1-(5-oxo-4,5-dihydro-1,3,4-oxadiazol-2-yl)propyl]sulfamoyl}benzamide] showed a GI50 of 228 to 4150 nM. Moreover, the “effect on intracellular dATP area” value in data set [2] (HCC38 and MV-4-11, 2 h) is recorded as “dramatically reduced”. Moreover, the “effect on intracellular dCTP and dTTP areas” value in data set [2] (HCC38 and MV-4-11, 2 h) is “increased”. In addition, the “effect on intracellular ATP pool” value in data set [2] (until 2 h, 10 µmol/L) is reported as “did not affect the intracellular ATP pool remarkably”. Further, the “T/C (mean tumor volume treated/control) on Day 15” value in data set [3] (50 mg/kg oral once daily for 14 days) amounted to 52.0%; in data set [3] (100 mg/kg oral once daily for 14 days), 45.0%; in data set [3] (200 mg/kg oral once daily for 14 days), 29.4%. In addition, the body weight change result in data set [3] (setting [5]) is “without a reduction in body weight”; in data set [3] (50, 100, 200 mg/kg oral once daily for 14 days) it was “none of the groups showed any dramatic weight loss”. The tumor growth outcome in data set [3] (setting [5]) is “tumor disappearance in all the treated animals”. The compound also showed a median survival time in data set [4] (start 11 days post-implantation) of 75.5 days. In addition, in data set [4] (versus control), the “increase in the life span” value amounted to 34.8%.
